Blank lines part the entries; values can stand above or below the molecule they belong to.
Experiments:
[1] = test system: endogenous eIF4E and HA-tagged 4E-BPs in S2 cells; assay: Immunofluorescence localization in S2 cells; type: cell-based, Drosophila melanogaster; settings: S2 cells, LMB 100 nM, 12 h
[2] = test system: CRM1; design: method as in PMID 15465908, PMID 10856257, PMID 9190288; settings: cited from earlier work
[3] = test system: eIF4E; settings: 4E-BP1,2 non-canonical motifs; cited from earlier work
Excerpt: The immunoprecipitation assays shown in Fig. 1e–g indicate that similar to CUP, Thor and 4E-T contain NC motifs that interact with the lateral binding surface of eIF4E. In human 4E-BP1,2, the NC IPGVTS/T motif (located C-terminally to the C motif), increases the binding affinity of the proteins for eIF4E by approximately three orders of magnitude. However, the IPGVTS/T motif is not conserved across the animal kingdom (Supplementary Fig. 2c). Nevertheless, several hydrophobic residues are present in the corresponding region in Dm Thor (residues Pro76–Pro84; Supplementary Fig. 2c). || Owing to their lack of conservation, it has remained unclear whether non-canonical motifs are present in all 4E-BPs[38]. […] At the functional level, non-canonical motifs have been proposed to play an auxiliary role and have been mainly implicated in the regulation of the affinity of eIF4E for the mRNA cap structure through allosteric effects. Specifically, the binding of the 4E-BP1,2 non-canonical ...

[4] = test system: eIF4E II-AA mutant bound to GST-4E-BP; assay: Competition by MBP-eIF4G with 4E-BPs bound to eIF4E II-AA mutant; type: biochemical, Drosophila melanogaster; settings: 30 min at 4 °C
Procedure: (§1) For the competition assays shown in Figs 5a,c and 6a,b, complexes containing SHN- or MBP-tagged eIF4E (WT or II-AA mutant) bound to GST-eIF4G (residues 578–650), GST-Thor (full length), GST-4E-T (residues 1–58) or GST-CUP (311–440) were obtained by coexpressing the corresponding proteins in E. coli BL21 (DE3) STAR cells (30 ml culture). The cells were resuspended in lysis buffer (5 ml) that was supplemented with EDTA-free protease inhibitor (Roche) and 1 mg ml^−1 lysozyme and lysed by sonication. The cleared lysates were incubated with 400 μl of Protino Glutathione Agarose 4B (Macherey-Nagel) for 1 h. The beads were washed three times with lysis buffer, and the proteins were eluted after 10 min of incubation with lysis buffer containing 25 mM L-glutathione. The protein complexes were stored at −20 °C or used in competition assays.
(§2) The purified recombinant complexes were mixed with excess amounts of the indicated purified competitor proteins (Fig. 5c) or with bacterial lysates expressing the competitor proteins (Figs 5a and 6) and incubated for 30 min at 4 °C. After incubation, 20 μl of immobilized γ-Aminophenyl-m^7GTP or Strep-Tactin Sepharose (IBA), were added to the samples and incubated for another 40 min at 4 °C. […] The proteins were analyzed by 10–15% SDS–PAGE followed by staining with Coomassie blue staining.

[5] = test system: eIF4E (WT) bound to GST-CUP, GST-Thor, GST-4E-T or GST-eIF4G; assay: Competition by MBP-eIF4G with 4E-BPs or eIF4G bound to WT eIF4E; type: biochemical, Drosophila melanogaster; settings: excess MBP-eIF4G (residues 578–650), 30 min at 4 °C, Strep-Tactin pull down
Procedure: as §1, §2

Molecule: CCC(=C/[C@H](C)C/C=C/C(C)=C/[C@@H](C)C(=O)[C@@H](C)[C@H](O)[C@@H](C)C/C(C)=C/C(=O)O)/C=C/[C@@H]1OC(=O)C=C[C@@H]1C [LMB, Leptomycin B, reference compound]
nuclear accumulation of 4E-BP upon LMB (in words) [1]: induced the nuclear accumulation of CUP and 4E-T proteins | inhibition of nuclear export by CRM1 (in words) [2]: inhibits nuclear export by CRM1

Molecule: human 4E-BP1,2: human eIF4E-binding proteins 1 and 2 with NC IPGVTS/T motif
effect of NC motif binding on affinity of eIF4E for the cap structure (in words) [3]: increases the affinity for the cap structure

displacement of CUP bound to eIF4E II-AA (in words) ([4]; excess MBP-eIF4G (residues 578–650) vs GST-CUP (311–440)): partially displaced CUP | displacement of Thor bound to eIF4E II-AA (in words) ([4]; excess MBP-eIF4G (residues 578–650) vs GST-Thor (full length)): completely displaced full-length Thor
B1: MBP-eIF4G: MBP-eIF4G (residues 578–650) (protein)
chain: PETTLNDKQDSTDLKVKVSAKISSIINYNEGQWSPNNPSGKKQYDREQLLQLREVKASRIQPEVKNVSILPQP
modifications: left off: MBP, N-terminal, kept | GB1, C-terminal, kept
displacement of proteins bound to WT eIF4E (in words) [5]: did not displace CUP, Thor, 4E-T or eIF4G bound to WT eIF4E

Reference: paper PMC4164784, “4E-BPs require non-canonical 4E-binding motifs and a lateral surface of eIF4E to repress translation” (Nature Communications, 2014)
